Laboratory results published in patent US10670605B2, “Cysteine reactive probes and uses thereof” (The Scripps Research Institute, priority 2015, dated 2020).

How the values were obtained:
Assay in all cases: Competitive isoTOP-ABPP, cell lysates
Type in all cases: binding
GSTP1 C48 (P09211) = GSTP1 C48 (P09211) (Homo sapiens, UniProt P09211); conditions: for R value (DMSO/fragment) / isoTOP-ABPP ratio, P09211_C48: 500 μM
IDH1 C269 (O75874) = IDH1 C269 (O75874) (Homo sapiens, UniProt O75874); conditions: for R value (DMSO/fragment) / isoTOP-ABPP ratio, O75874_C269: 500 μM
Chain of IDH1 C269 (O75874) (O75874 whole entry, the tested form may be a part): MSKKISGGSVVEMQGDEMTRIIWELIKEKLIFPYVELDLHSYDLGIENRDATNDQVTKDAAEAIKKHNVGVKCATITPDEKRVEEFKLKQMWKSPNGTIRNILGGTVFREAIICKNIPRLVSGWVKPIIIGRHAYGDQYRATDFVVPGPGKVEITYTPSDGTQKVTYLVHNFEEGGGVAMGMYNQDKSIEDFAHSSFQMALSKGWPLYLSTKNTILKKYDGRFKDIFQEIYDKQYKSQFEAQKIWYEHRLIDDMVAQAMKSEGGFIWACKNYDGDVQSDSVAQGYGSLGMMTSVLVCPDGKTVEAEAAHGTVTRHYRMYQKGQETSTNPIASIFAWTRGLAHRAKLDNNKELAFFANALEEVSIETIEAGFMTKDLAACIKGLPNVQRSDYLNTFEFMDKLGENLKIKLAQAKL

IRF4 C194 (Q15306) = target: T1, IRF4 C194 (Q15306) (Homo sapiens, UniProt Q15306)
T1 sequence (Q15306 1-451): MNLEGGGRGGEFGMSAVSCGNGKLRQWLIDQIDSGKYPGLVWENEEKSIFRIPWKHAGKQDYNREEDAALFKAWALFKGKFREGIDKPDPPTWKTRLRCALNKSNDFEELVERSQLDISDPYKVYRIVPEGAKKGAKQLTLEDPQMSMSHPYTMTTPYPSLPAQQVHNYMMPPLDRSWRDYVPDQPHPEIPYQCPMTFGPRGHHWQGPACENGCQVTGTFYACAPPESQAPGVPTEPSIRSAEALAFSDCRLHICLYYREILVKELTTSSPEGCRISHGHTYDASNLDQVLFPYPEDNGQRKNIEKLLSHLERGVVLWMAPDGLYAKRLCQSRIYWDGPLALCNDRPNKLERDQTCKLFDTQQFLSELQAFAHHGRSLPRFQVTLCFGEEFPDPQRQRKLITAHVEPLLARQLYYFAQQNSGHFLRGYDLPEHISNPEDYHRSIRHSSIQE

PDIA6 C190 (Q15084) = target: T2, PDIA6 C190 (Q15084) (Homo sapiens, UniProt Q15084); conditions: for R value (DMSO/fragment) / isoTOP-ABPP ratio, Q15084_C190: 500 μM
T2 sequence (Q15084 20-440): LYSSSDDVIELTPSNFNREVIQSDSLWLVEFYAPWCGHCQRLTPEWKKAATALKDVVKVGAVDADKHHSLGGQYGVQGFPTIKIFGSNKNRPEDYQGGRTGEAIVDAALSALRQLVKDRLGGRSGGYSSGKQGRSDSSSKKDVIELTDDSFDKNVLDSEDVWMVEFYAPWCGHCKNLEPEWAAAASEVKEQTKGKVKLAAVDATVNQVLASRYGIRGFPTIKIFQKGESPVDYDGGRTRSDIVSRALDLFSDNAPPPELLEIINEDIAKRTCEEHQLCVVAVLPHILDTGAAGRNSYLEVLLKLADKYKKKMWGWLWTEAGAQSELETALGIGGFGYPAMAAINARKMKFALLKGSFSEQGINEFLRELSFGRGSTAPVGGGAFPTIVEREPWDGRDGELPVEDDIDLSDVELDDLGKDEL

UBE2S C118 (Q16763) = target: T3, UBE2S C118 (Q16763) (Homo sapiens, UniProt Q16763); conditions: for R value (DMSO/fragment) / isoTOP-ABPP ratio, Q16763_C118: 500 μM
T3 sequence (Q16763 1-222): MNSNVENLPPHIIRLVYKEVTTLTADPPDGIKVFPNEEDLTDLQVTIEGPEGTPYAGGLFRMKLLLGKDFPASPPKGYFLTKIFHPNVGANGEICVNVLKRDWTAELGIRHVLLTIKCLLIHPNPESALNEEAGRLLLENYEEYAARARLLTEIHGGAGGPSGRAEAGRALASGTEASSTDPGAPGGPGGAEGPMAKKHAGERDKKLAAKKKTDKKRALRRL

UCHL3 C95 (P15374) = target: T4, UCHL3 C95 (P15374) (Homo sapiens, UniProt P15374); conditions: for R value (DMSO/fragment) / isoTOP-ABPP ratio, P15374_C95: 500 μM
T4 sequence (P15374 1-230): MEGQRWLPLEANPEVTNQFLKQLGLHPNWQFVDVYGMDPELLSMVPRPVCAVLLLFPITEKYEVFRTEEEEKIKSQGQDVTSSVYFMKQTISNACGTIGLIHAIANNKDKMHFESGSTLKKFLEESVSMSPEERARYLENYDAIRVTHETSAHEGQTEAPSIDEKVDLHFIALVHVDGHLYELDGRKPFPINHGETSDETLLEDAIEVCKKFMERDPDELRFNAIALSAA

XPO1 C34 (O14980) = XPO1 C34 (O14980) (Homo sapiens, UniProt O14980); conditions: for R value (DMSO/fragment) / isoTOP-ABPP ratio, O14980_C34: 500 μM
Chain of XPO1 C34 (O14980) (O14980 whole entry, the tested form may be a part): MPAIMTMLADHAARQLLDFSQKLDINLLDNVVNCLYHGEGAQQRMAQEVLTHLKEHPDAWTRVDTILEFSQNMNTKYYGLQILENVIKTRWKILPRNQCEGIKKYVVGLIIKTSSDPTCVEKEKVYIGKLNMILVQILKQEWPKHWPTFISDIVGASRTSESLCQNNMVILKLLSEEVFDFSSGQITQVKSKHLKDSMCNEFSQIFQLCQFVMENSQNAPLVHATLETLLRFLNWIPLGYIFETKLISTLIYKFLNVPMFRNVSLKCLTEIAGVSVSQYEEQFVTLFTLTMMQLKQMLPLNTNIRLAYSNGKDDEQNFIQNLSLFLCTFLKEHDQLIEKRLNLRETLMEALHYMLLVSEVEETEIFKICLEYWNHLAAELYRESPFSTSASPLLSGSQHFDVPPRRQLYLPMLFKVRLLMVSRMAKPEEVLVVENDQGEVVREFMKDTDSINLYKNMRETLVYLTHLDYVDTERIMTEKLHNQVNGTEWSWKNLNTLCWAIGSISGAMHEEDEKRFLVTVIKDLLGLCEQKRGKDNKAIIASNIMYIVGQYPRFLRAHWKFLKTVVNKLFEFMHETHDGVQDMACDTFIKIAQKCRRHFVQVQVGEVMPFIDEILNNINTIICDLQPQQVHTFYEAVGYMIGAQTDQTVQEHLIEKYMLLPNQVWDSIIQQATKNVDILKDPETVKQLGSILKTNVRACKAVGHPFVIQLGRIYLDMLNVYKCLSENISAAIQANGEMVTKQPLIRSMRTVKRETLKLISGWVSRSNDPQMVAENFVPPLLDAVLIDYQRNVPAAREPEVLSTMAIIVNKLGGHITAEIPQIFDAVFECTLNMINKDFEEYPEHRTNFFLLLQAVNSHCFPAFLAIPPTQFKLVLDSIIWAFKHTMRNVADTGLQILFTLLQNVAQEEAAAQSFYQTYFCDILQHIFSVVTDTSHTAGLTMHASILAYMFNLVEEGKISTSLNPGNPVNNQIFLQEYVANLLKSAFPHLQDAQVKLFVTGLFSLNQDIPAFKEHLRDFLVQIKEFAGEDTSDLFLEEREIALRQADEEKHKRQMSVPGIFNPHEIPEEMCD

ZNF217 C286 (O75362) = ZNF217 C286 (O75362) (Homo sapiens, UniProt O75362); conditions: 500 μM; for isoTOP-ABPP ratio O75362_C286: invitro
Chain of ZNF217 C286 (O75362) (O75362 whole entry): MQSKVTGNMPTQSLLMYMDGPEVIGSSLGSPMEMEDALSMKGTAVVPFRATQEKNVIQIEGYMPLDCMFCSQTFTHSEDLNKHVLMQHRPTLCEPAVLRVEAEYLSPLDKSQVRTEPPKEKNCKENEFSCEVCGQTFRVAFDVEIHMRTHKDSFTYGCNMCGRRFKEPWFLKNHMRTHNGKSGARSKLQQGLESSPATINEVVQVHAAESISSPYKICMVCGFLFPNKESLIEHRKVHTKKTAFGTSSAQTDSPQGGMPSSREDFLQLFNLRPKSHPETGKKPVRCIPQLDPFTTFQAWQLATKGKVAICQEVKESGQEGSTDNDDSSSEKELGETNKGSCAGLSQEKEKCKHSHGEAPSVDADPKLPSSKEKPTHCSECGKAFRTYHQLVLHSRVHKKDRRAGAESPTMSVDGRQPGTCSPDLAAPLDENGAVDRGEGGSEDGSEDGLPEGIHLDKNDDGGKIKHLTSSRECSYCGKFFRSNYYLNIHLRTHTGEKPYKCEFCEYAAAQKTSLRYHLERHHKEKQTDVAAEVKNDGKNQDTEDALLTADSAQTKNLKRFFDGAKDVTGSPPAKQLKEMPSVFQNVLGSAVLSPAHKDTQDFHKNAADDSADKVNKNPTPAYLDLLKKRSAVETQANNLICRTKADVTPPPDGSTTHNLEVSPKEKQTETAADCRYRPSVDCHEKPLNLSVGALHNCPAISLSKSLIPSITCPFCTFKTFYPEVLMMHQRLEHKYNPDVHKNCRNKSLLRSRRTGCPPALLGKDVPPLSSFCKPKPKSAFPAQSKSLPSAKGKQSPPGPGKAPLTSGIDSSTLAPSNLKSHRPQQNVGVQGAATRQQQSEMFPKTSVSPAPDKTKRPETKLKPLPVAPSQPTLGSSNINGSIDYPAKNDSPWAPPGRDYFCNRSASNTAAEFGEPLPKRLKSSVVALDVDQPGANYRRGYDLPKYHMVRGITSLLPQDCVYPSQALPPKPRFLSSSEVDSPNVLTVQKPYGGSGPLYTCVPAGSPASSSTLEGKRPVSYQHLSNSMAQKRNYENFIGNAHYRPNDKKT

Chain of GSTP1 C48 (P09211) (P09211 whole entry, the tested form may be a part): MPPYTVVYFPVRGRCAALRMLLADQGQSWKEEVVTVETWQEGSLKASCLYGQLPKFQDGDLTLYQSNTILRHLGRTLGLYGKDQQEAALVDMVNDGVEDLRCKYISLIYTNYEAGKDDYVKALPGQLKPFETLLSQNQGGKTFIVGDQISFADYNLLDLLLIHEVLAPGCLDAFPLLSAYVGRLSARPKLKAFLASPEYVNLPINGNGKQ

Row | isoTOP-ABPP ratio, P09211_C48 (GSTP1 C48 (P09211); invitro, 231) | isoTOP-ABPP ratio, P09211_C48 (GSTP1 C48 (P09211); invitro, ramos) | isoTOP-ABPP ratio, O75874_C269 (IDH1 C269 (O75874); invitro, ramos) | isoTOP-ABPP ratio, Q15306_C194 (IRF4 C194 (Q15306); 500 μM, invitro, ramos) | isoTOP-ABPP ratio, Q15084_C190 (PDIA6 C190 (Q15084); invitro, ramos) | isoTOP-ABPP ratio, Q16763_C118 (UBE2S C118 (Q16763); invitro, 231) | isoTOP-ABPP ratio, P15374_C95 (UCHL3 C95 (P15374); invitro, 231) | isoTOP-ABPP ratio, P15374_C95 (UCHL3 C95 (P15374); invitro, ramos) | isoTOP-ABPP ratio, O14980_C34 (XPO1 C34 (O14980); invitro, 231) | isoTOP-ABPP ratio, O14980_C34 (XPO1 C34 (O14980); invitro, ramos) | isoTOP-ABPP ratio, O75874_C269 (IDH1 C269 (O75874); invitro, 231) | isoTOP-ABPP ratio O75362_C286 (ZNF217 C286 (O75362); 231) | isoTOP-ABPP ratio, Q15084_C190 (PDIA6 C190 (Q15084); invitro, 231) | isoTOP-ABPP ratio O75362_C286 (ZNF217 C286 (O75362); ramos) | SMILES | other results
1 | – | – | – | – | – | – | – | – | – | – | – | – | – | – | O=C(CCl)Nc1cc(C(F)(F)F)cc(C(F)(F)F)c1 [compound 3] | R value (DMSO/fragment) (GSTP1 C48 (P09211); in vitro, MDA-MB-231): 2.9; R value (DMSO/fragment) (GSTP1 C48 (P09211); invitro, ramos): 1.7; R value (DMSO/fragment) (IDH1 C269 (O75874); in vitro, MDA-MB-231): 20.0; R value (DMSO/fragment) (IDH1 C269 (O75874); invitro, ramos): 1.0; R value (DMSO/fragment) (IRF4 C194 (Q15306); 500 μM, invitro, ramos): 20.0; R value (DMSO/fragment) (PDIA6 C190 (Q15084); in vitro, MDA-MB-231): 19.9; R value (DMSO/fragment) (PDIA6 C190 (Q15084); invitro, ramos): 13.1; R value (DMSO/fragment) (UBE2S C118 (Q16763); in vitro, MDA-MB-231): 1.3; R value (DMSO/fragment) (UBE2S C118 (Q16763); invitro, ramos): 1.5; R value (DMSO/fragment) (UCHL3 C95 (P15374); in vitro, MDA-MB-231): 1.7; R value (DMSO/fragment) (UCHL3 C95 (P15374); invitro, ramos): 1.4; R value (DMSO/fragment) (XPO1 C34 (O14980); in vitro, MDA-MB-231): 1.4; R value (DMSO/fragment) (XPO1 C34 (O14980); invitro, ramos): 1.6; R value (DMSO/fragment) (ZNF217 C286 (O75362); in vitro, MDA-MB-231): 1.4
2 | 2.2 | 2.4 | 0.8 | 2.2 | 1.7 | 2.8 | 1.5 | 1.1 | 1.1 | 1.2 | – | – | – | – | C=CC(=O)N(c1ccccc1)c1ccc(Br)cc1 [compound 5] | –
3 | 1.4 | 0.8 | – | 2.5 | 3.3 | 1.7 | 2.0 | – | 1.2 | 0.7 | 20.0 | 1.1 | – | – | O=C(CCl)N1CCN(S(=O)(=O)c2ccccc2F)CC1 [compound 10] | –
4 | 1.7 | 1.1 | 0.7 | 4.3 | 20.0 | – | 0.8 | 0.8 | 1.2 | 1.0 | 1.1 | 1.2 | 20.0 | 1.2 | Cn1cc(S(=O)(=O)N2CCOCC2)cc1C(=O)NC(=O)CCl [compound 11] | –
5 | 1.5 | 1.2 | – | 1.1 | 1.3 | – | – | 0.8 | 0.9 | 0.7 | 2.7 | 0.9 | 1.5 | 0.9 | O=C(CCl)NCCc1c[nH]c2ccccc12 [compound 13] | isoTOP-ABPP ratio, Q16763_C118 (UBE2S C118 (Q16763); invitro, ramos): 0.7
6 | 2.5 | – | – | – | – | – | – | – | – | – | – | – | 0.9 | – | C=CC(=O)N(Cc1cccnc1)c1ccc(Oc2ccccc2)c(C(F)(F)F)c1 [compound 15] | isoTOP-ABPP ratio (reactivity profile), P09211_C48 (GSTP1 C48 (P09211); 500 μm in-vitro ramos): 1.3; isoTOP-ABPP ratio (reactivity profile), O75874_C269 (IDH1 C269 (O75874); 500 μm in-vitro ramos): 0.6; isoTOP-ABPP ratio (reactivity profile), Q15306_C194 (IRF4 C194 (Q15306); 500 μm in-vitro ramos): 2.2; isoTOP-ABPP ratio (reactivity profile), Q15084_C190 (PDIA6 C190 (Q15084); 500 μm in-vitro ramos): 1.2; isoTOP-ABPP ratio (reactivity profile), Q16763_C118 (UBE2S C118 (Q16763); 500 μm in-vitro ramos): 1.2; isoTOP-ABPP ratio (reactivity profile), P15374_C95 (UCHL3 C95 (P15374); 500 μm in-vitro ramos): 0.7; isoTOP-ABPP ratio (reactivity profile), O14980_C34 (XPO1 C34 (O14980); 500 μm in-vitro ramos): 1.2
